# Assay results taken from patent US9187455B2, “Substituted pyridazines as PDE10A inhibitors” (Hoffmann-La Roche Inc., priority 2009, dated 2015).
# What was measured:
# rats = conditions: sub-chronic treatment with PCP, Rodefer et al. 2005; cited from earlier work
# PDE10A2 = molecular target: T1, PDE10A2 (Homo sapiens, UniProt Q9Y233); test: PDE10A2 Scintillation Proximity Assay (SPA), [3H]-cGMP hydrolysis; assay type: biochemical; conditions: catalytic domain of human PDE10A2 (S449-D789), 0.25 nM enzyme, 50 nM cGMP + 50 nM [3H]-cGMP, 30 minutes at room temperature; read-out: PDE10A2 inhibition IC50
# T1 construct: residues serine 449 to aspartate 789; His6 (H6) with Gateway linker and thrombin cleavage site (N, cleaved yes); made in house; host or cells: E. coli BL21(DE3) pLysS
# T1 sequence (Q9Y233 715-1055): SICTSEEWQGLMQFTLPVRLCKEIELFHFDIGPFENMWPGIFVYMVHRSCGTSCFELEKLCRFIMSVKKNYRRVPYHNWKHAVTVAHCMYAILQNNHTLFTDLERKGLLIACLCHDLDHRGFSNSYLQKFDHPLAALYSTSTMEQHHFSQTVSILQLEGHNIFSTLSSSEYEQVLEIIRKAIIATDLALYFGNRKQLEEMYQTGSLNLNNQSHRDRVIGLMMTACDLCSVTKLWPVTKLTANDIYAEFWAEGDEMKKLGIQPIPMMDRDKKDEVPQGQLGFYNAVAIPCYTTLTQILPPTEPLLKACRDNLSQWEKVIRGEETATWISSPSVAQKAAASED
# Summary of the method: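 Recombinant human PDE10A2 catalytic domain (S449–D789, E. coli-expressed), 0.25 nM, with 50 nM cGMP plus 50 nM [3H]-cGMP in 20 mM HEPES/10 mM MgCl2, pH 7.5, 30 min at room temperature. Stopped with YSi-SPA beads in zinc sulphate; counts over a compound concentration range gave IC50.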
IC50 (PDE10A2),Structure (SMILES),effect on deficits in extra-dimensional shift learning (rats)
–,"COc1ccc(Cc2nccc3cc(OC)c(OC)cc23)cc1OC [papaverine, Papaverine]",attenuate the deficits in the extra-dimensional shift learning
1420 nM,"O=c1ccn(-c2ccnc(N3CCOCC3)c2)nc1-c1ccnn1-c1cccc(F)c1 [Example 42, 3-[2-(3-Fluoro-phenyl)-2H-pyrazol-3-yl]-1-(2-morpholin-4-yl-pyridin-4-yl)-1H-pyridazin-4-one]",–
206 nM,"Cc1cc(-n2ccc(=O)c(-c3ccnn3-c3ccccc3F)n2)ccn1 [Example 93, 3-[2-(2-Fluoro-phenyl)-2H-pyrazol-3-yl]-1-(2-methyl-pyridin-4-yl)-1H-pyridazin-4-one]",–
96 nM,"CS(=O)(=O)c1cc(-n2ccc(=O)c(-c3ccnn3-c3ccc4c(c3)OCCO4)n2)ccn1 [Example 17, 3-[2-(2,3-Dihydro-benzo[1,4]dioxin-6-yl)-2H-pyrazol-3-yl]-1-(2-methanesulfonyl-pyridin-4-yl)-1H-pyridazin-4-one]",–
